pEC50: −log10 of the molar value.
What follows are molecules tested against T1, Estrogen receptor (Homo sapiens, UniProt P03372) (assay: ERα coactivator recruitment enhancers – biochemical, TR-FRET, ERα LBD, dose response (AID 737)).
T1 sequence (P03372 whole entry): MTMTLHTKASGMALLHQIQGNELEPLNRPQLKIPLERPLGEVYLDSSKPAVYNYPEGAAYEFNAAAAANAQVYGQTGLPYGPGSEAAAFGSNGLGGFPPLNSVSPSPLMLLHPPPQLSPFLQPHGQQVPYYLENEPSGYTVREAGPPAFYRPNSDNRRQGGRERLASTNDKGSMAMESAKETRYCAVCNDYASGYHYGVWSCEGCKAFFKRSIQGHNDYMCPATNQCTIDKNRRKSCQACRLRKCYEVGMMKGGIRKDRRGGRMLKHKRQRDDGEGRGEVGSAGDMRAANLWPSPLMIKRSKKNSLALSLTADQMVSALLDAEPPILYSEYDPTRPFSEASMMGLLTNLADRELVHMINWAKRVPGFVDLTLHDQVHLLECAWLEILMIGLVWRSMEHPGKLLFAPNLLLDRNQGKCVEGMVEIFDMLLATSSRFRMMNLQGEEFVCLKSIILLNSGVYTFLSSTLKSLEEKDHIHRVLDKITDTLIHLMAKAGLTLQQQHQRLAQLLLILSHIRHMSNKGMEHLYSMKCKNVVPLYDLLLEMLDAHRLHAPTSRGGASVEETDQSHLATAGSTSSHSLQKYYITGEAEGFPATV
In the case of CCOc1ccccc1C1c2c(-c3ccccc3)noc2N=C(N)C1C#N (stereo unspecified) [6-amino-4-(2-ethoxyphenyl)-3-phenyl-2,4-dihydroisoxazolo[5,4-b]pyridine-5-carbonitrile], the pEC50 was 4.76.
CCOc1ccc(Cc2sc(Nc3ccccn3)nc2O)cc1 [5-(4-Ethoxy-benzyl)-2-[(Z)-pyridin-2-ylimino]-thiazolidin-4-one] was tested, and the pEC50 was 4.60.
For O=C1c2ccccc2C(=O)C1c1ccnc2ccccc12 [2-(1H-quinolin-4-ylidene)indane-1,3-quinone], the pEC50 was 5.17.
Cc1ccc(-c2n[nH]c(=S)n2NC=CCc2ccccc2[N+](=O)[O-])cc1 gave a pEC50 of 5.19.
With CCc1[nH]nc2c1C(c1cccc(OC(=O)N3CCOCC3)c1)C(C#N)C(=N)O2 (stereo unspecified) [3-(6-amino-5-cyano-3-ethyl-1,4-dihydropyrano[2,3-c]pyrazol-4-yl)phenyl morpholine-4-carboxylate] the pEC50 was 5.19.
In the case of CCn1c(=NC(=O)c2ccc(-n3c(O)ccc3O)cc2)sc2c(OC)ccc(OC)c21 [4-[2,5-bis(oxidanylidene)pyrrolidin-1-yl]-N-(3-ethyl-4,7-dimethoxy-1,3-benzothiazol-2-ylidene)benzamide], the pEC50 was 5.10.

From BindingDB's records for doi:10.7270/Q2F47MJ9 (Emory University, 2007)
